Experimental data published in patent US20220030865A1, “COMPOSITIONS COMPRISING FLORPYRAUXIFEN THAT SAFEN WHITE CLOVER AND METHODS OF USE THEREOF” (CORTEVA AGRISCIENCE LLC, priority 2018, published 2022).

Experiments:
[1] = test system: tall buttercup (RANAC, Ranunculus acris); assay: Field trial, postemergence herbicidal effect on pasture weeds
Description: (§1) Trials were designed as randomized complete blocks with four replicates. All trials were established with a minimum plot size of 3 meters (m) by 8 m (width×length). All herbicide treatments were applied post-emergence with applications made to the undesirable vegetation. Herbicides were applied with backpack sprayers using carbon dioxide (CO2) as a propellant. The sprayers utilized flat fan spray nozzles calibrated to deliver a uniform spray pattern that provided thorough coverage of the foliage using a 187 L/ha spray volume. All treatments were applied with Activator 90 non-ionic surfactant at 0.25% v/v.
(§2) The weeds were evaluated on the number of days after application (DAA) given in each table below. Injury to the weeds was assessed visually at several intervals after application as percent overall injury, compared to an untreated control plot. The overall injury assessments were based on visual ratings of growth inhibition, leaf deformity, epinasty, and chlorosis.

[2] = test system: mayweed chamomile (ANTCO, Anthemis cotula); assay: as above; conditions: 14 DAA
Description: as §1, §2

[3] = test system: Virginia pepperweed (LEPVI, Lepidium virginicum); assay: as above; conditions: 27 DAA
Description: as §1, §2

[4] = test system: sickle pod (CASOB, Senna obtusifolia); assay: as above
Description: as §1, §2

[5] = test system: bitter sneezeweed (HENAM, Helenium amarum); assay: as above
Description: as §1, §2

[6] = test system: annual yellow sweetclover (MEUIN, Melilotus indicus); assay: as above; conditions: 30 DAA
Description: as §1, §2

[7] = test system: annual marsh-elder (IVAAN, Iva annua); assay: as above
Description: as §1, §2

[8] = test system: brown knapweed (CENJA, Centaurea jacea); assay: as above
Description: as §1, §2

[9] = test system: goldenrod (SOOSS, Solidago sp.); assay: as above; conditions: 67 DAA
Description: as §1, §2

[10] = test system: hairy aster (ASTPI, Symphyotrichum pilosum); assay: as above
Description: as §1, §2

[11] = test system: white clover (TRFRE, Trifolium repens); assay: Field trial United States, safening effect (visual injury) on white clover
Description: Field trials were established in multiple states in the United States to evaluate the safening effect of herbicide treatments to white clover (TRFRE, Trifolium repens) in existing pasture lands. Trials were designed as randomized complete blocks with four replicates. All trials were established with a minimum plot size of 3 meters (m) by 8 m (width×length).
All herbicide treatments were applied post-emergence with applications made to the white clover. Herbicides were applied with backpack sprayers using carbon dioxide (CO2) as a propellant. The sprayers utilized flat fan spray nozzles calibrated to deliver a uniform spray pattern that provided thorough coverage of the foliage using a 187 L/ha spray volume. All treatments were applied with Activator 90 non-ionic surfactant at 0.25% v/v.
The white clover was evaluated on the number of days after application (DAA) given in each table below. Injury to the white clover was assessed visually at several intervals after application as percent overall injury, compared to an untreated control plot. The overall injury assessments were based on visual ratings of growth inhibition, leaf deformity, epinasty, and chlorosis.

Structure (SMILES): O=C(O)COc1ccc(Cl)cc1Cl [2,4-D Choline, 2,4-D choline]
- Visual Weed Control RANAC Obs ([1]; 10 DAA, 750 g ae/ha): 8%
- Visual Weed Control RANAC Obs ([1]; 40 DAA, 750 g ae/ha): 28%
- Visual Weed Control ANTCO Obs ([2]; 840 g ae/ha): 30%
- Visual Weed Control LEPVI Obs ([3]; 840 g ae/ha): 74%
- Visual Weed Control CASOB Obs ([4]; 30 DAA, 840 g ae/ha): 10%
- Visual Weed Control CASOB Obs ([4]; 45 DAA, 840 g ae/ha): 10%
- Visual Weed Control HENAM Obs ([5]; 30 DAA, 840 g ae/ha): 74%
- Visual Weed Control HENAM Obs ([5]; 80 DAA, 840 g ae/ha): 90%
- Visual Weed Control MEUIN Obs ([6]; 840 g ae/ha): 20%
- Visual Weed Control IVAAN Obs ([7]; 41 DAA, 840 g ae/ha): 38%
- Visual Weed Control IVAAN Obs ([7]; 56 DAA, 840 g ae/ha): 38%
- Visual Weed Control IVAAN Obs ([7]; 75 DAA, 840 g ae/ha): 30%
- Visual Weed Control IVAAN Obs ([7]; 83 DAA, 840 g ae/ha): 35%
- Visual Weed Control CENJA Obs ([8]; 67 DAA, 840 g ae/ha): 0%
- Visual Weed Control CENJA Obs ([8]; 88 DAA, 840 g ae/ha): 0%
- Visual Weed Control CENJA Obs ([8]; 117 DAA, 840 g ae/ha): 0%
- Visual Weed Control SOOS Obs ([9]; 840 g ae/ha): 15%
- Visual Weed Control ASTPI Obs ([10]; 88 DAA, 840 g ae/ha): 10%
- Visual Weed Control ASTPI Obs ([10]; 117 DAA, 840 g ae/ha): 5%
- Visual Injury TRFRE Obs ([11]; 0 DAA, 754 g ae/ha): 30%
- Visual Injury TRFRE Obs ([11]; 0 DAA, 840 g ae/ha): 6.5%
- Visual Injury TRFRE Obs ([11]; 7 DAA, 754 g ae/ha): 4.8%
- Visual Injury TRFRE Obs ([11]; 7 DAA, 840 g ae/ha): 10%
- Visual Injury TRFRE Obs ([11]; 14 DAA, 754 g ae/ha): 86.2%
- Visual Injury TRFRE Obs ([11]; 14 DAA, 840 g ae/ha): 15%
- Visual Injury TRFRE Obs ([11]; 21 DAA, 840 g ae/ha): 11.2%
- Visual Injury TRFRE Obs ([11]; 28 DAA, 840 g ae/ha): 10%

Structure (SMILES): COc1c(Cl)ccc(-c2nc(C(=O)OCc3ccccc3)c(Cl)c(N)c2F)c1F [Florpyrauxifen Benzyl, florpyrauxifen benzyl]
- Visual Weed Control RANAC Obs ([1]; 10 DAA, 9.44 g ae/ha): 0%
- Visual Weed Control RANAC Obs ([1]; 40 DAA, 9.44 g ae/ha): 0%
- Visual Weed Control ANTCO Obs ([2]; 12.5 g ae/ha): 10%
- Visual Weed Control LEPVI Obs ([3]; 9.5 g ae/ha): 62%
- Visual Weed Control LEPVI Obs ([3]; 12.5 g ae/ha): 70%
- Visual Weed Control LEPVI Obs ([3]; 19 g ae/ha): 65%
- Visual Weed Control CASOB Obs ([4]; 30 DAA, 12.5 g ae/ha): 10%
- Visual Weed Control CASOB Obs ([4]; 30 DAA, 19 g ae/ha): 10%
- Visual Weed Control CASOB Obs ([4]; 45 DAA, 12.5 g ae/ha): 10%
- Visual Weed Control CASOB Obs ([4]; 45 DAA, 19 g ae/ha): 10%
- Visual Weed Control HENAM Obs ([5]; 30 DAA, 9.5 g ae/ha): 60%
- Visual Weed Control HENAM Obs ([5]; 30 DAA, 12.5 g ae/ha): 60%
- Visual Weed Control HENAM Obs ([5]; 80 DAA, 12.5 g ae/ha): 40%
- Visual Weed Control MEUIN Obs ([6]; 19 g ae/ha): 10%
- Visual Weed Control IVAAN Obs ([7]; 41 DAA, 12.5 g ae/ha): 38%
- Visual Weed Control IVAAN Obs ([7]; 41 DAA, 19 g ae/ha): 50%
- Visual Weed Control IVAAN Obs ([7]; 56 DAA, 12.5 g ae/ha): 42%
- Visual Weed Control IVAAN Obs ([7]; 75 DAA, 9.5 g ae/ha): 25%
- Visual Weed Control IVAAN Obs ([7]; 75 DAA, 12.5 g ae/ha): 48%
- Visual Weed Control IVAAN Obs ([7]; 83 DAA, 9.5 g ae/ha): 30%
- Visual Weed Control IVAAN Obs ([7]; 83 DAA, 12.5 g ae/ha): 48%
- Visual Weed Control CENJA Obs ([8]; 67 DAA, 19 g ae/ha): 62%
- Visual Weed Control CENJA Obs ([8]; 88 DAA, 19 g ae/ha): 62%
- Visual Weed Control CENJA Obs ([8]; 117 DAA, 9.5 g ae/ha): 21%
- Visual Weed Control CENJA Obs ([8]; 117 DAA, 19 g ae/ha): 31%
- Visual Weed Control SOOS Obs ([9]; 9.5 g ae/ha): 75%
- Visual Weed Control ASTPI Obs ([10]; 88 DAA, 9.5 g ae/ha): 75%
- Visual Weed Control ASTPI Obs ([10]; 117 DAA, 9.5 g ae/ha): 20%
